Entries after “also recorded” stand apart in the source; their conditions may differ. Ends that are not written are not given here.
What was measured:
[1] = system: bleomycin induced lung fibrosis; settings: i.t.; concomitantly or 3 days after bleomycin; cited from earlier work
[2] = system: TGF-β-induced dermal fibrosis in mouse skin; settings: single dose concurrently with TGF-β; cited from earlier work
uPA = experiment: Genes regulated by E4: uPA; assay type: cell-based, human; settings: HuF-T; RT-qPCR, protein expression levels, enzyme activity
Protocol: (§1) Several experiments have been performed to identify the mechanisms by which E4 exerts its anti-fibrotic activity. Real-time quantitative PCR (qPCR)-based arrays were performed on RNA extracted from primary human lung fibroblasts or mouse lung tissue stimulated with various fibrotic triggers in the absence and presence of E4 treatment in order to identify genes influenced by the endostatin peptide.
(§2) The arrays identified several genes that have been previously implicated in fibrosis to be influenced by E4 treatment. These genes included connective tissue growth factor (CTGF), insulin-like growth factor binding protein (IGFBP)-3, matrix metalloproteases (MMP)-1 and MMP-3, urokinase plasminogen activator (uPA), plasminogen activator inhibitor (PAI)-1, and hepatocyte growth factor (HGF) with levels either decreased or increased in the presence of E4 as shown in TABLE 5.

ID1 = experiment: Real-time PCR of ID1 mRNA in primary human lung fibroblasts; assay type: cell-based
Protocol: FIG. 15. […] Real-time PCR analysis was performed to determine the ID1 mRNA levels under the indicated conditions.

lysyl oxidase (LOX) [3] = settings: Yamaguchi et al. 2012; cited from earlier work
MMP-3 = experiment: Genes regulated by E4: MMP-3; assay type: cell-based, human; settings: HuF-T; RT-qPCR, protein expression levels, zymography
Protocol: as §1, §2

MMP-2 = experiment: Gelatin zymography of MMP-2 in primary human lung fibroblasts; assay type: cell-based; settings: for MMP-2 activity: E-4 following TGF-β
Excerpt: FIG. 14A-14B. FIG. 14A: E4 reduces fibrosis in vitro by inducing MMP-2 activity in primary human lung fibroblasts, thus resulting in increased degradation of collagen and other matrix proteins. […] Lane 1: Vehicle (DMSO); Lane 2: E-4; Lane 3: TGF-β; Lane 4: TGF-β followed by E4. FIG. 14B: Digital image showing that both total and active MMP-2 levels are increased in cells treated with TGF-β and E-4.

PAI-1 = experiment: Genes regulated by E4: PAI-1; assay type: cell-based, human; settings: HuF-T and mouse bleomycin model of pulmonary fibrosis; RT-qPCR, protein expression
Protocol: as §1, §2

[4] = system: human primary skin fibroblasts; experiment: Western blot of ECM production in primary skin fibroblasts; assay type: cell-based; settings: dermal fibroblasts of healthy controls, SSc or morphea patients
Protocol: Primary Fibroblast Culture. Human primary lung and skin fibroblasts were cultured. The explanted lungs of normal organ donors, patients with SSc or IPF, and clinically involved skin of SSc patients, a morphea patient and healthy donors were used for primary fibroblast culture. Approximately 2-cm pieces of peripheral lung and skin were minced and fibroblasts were cultured in Dulbecco's modified Eagle's medium (DMEM; Mediatech, Herndon, Va.) supplemented with 10% FBS, penicillin, streptomycin, and anti-mycotic agent, as previously described (Feghali et al., Arthritis Rheum 1999; 42:1451-7). All the cells were used between passages 3-6.
Western Blot Analysis. Cellular lysates were obtained from cultured fibroblasts as previously described (Pilewski et al., Am J Pathol 2005; 166:399-407). […] Cellular lysates were analyzed by Western blot. Signals were detected following incubation with horseradish peroxidase-conjugated secondary antibody and chemiluminescence (Perkin Elmer Life Sciences, Inc., Boston, Mass.). The intensity of individual bands with expected molecular sizes was semi-quantitatively analyzed using the image/J® software available at on the Internet (/rsb.info.nih.gov/ij/index.html), and normalized to individual GAPDH intensity.

HUVECs = experiment: Tubular formation assay in MATRIGEL; assay type: cell-based, human; settings: 50 nM, 24 hours
Protocol: Tubular formation assay. The ability of endostatin peptide to inhibit angiogenesis was examined in tubular formation assay using MATRIGEL® culture. Human umbilical vein endothelial cells (HUVECs) were maintained in endothelial cell basal medium-2 (EBM-2; Clonetics, San Diego, CA) supplemented with EBM-2 MV SINGLEQUOTS®. HUVECs (5×10^4) were cultured in duplicate on 24-well MATRIGEL® plates (BD Biosciences, San Diego, CA) alone, or in the presence of rE or E4 peptide (50 nM) in EBM-2 at 37° C. DMSO was used as vehicle control. After 24 hours, images were captured using a […] microscope. The degree of cord formation was quantified by measuring the area occupied by tubes in 6 random fields per well. Three independent experiments were performed.

lysyl oxidase (LOX) [5] = experiment: LOX Western blot in conditioned media of primary human lung fibroblasts; assay type: cell-based; settings: TGF-β followed 30 min later by E4; 48 h
Protocol: FIG. 13. E4 reduces fibrosis in vitro by blocking TGF-β-induced LOX production in primary human lung fibroblasts. Normal lung fibroblasts in passage 4 were treated with vehicle, E4, TGF-β, or TGF-β followed 30 min. later by E4. Media conditioned by the fibroblasts were analyzed using Western blot analysis after 48 hour. Lane 1: Vehicle (DMSO); Lane 2: E-4; Lane 3: TGF-β; Lane 4: TGF-β followed by E4. Similar results were obtained when LOX mRNA levels were examined by real-time PCR.
E4-mediated reduction of LOX was detected also was detected in vitro. Normal lung fibroblasts in passage 4 were treated with vehicle, E4, TGF-β, or TGF-β followed 30 minutes later by E4 (FIG. 13). Media conditioned by the fibroblasts were analyzed using Western blot analysis after 48 hrs. […] Similar results were obtained when LOX mRNA levels were examined by real-time PCR.

[6] = system: bleomycin induced dermal fibrosis; settings: s.c.; single dose prophylactically, or multiple dose regimen starting 3 days after bleomycin; cited from earlier work
IGFBP-3 = experiment: Genes regulated by E4: IGFBP-3; assay type: cell-based, human; settings: HuF-T; RT-qPCR, protein expression levels
Protocol: as §1, §2

E4: SEQ ID NO: 21, amino acids 133-180 of human endostatin with a C-terminal amide (SYCETWRTEAPSATGQASSLLGGRLLGQSAASCHHAYIVLCIENSFMT-NH2; cysteine pairing not given here)
pulmonary fibrosis (microscopy, hydroxyproline/collagen) [1]: E4 significantly decreased
skin thickness [2]: significantly decreased skin
Effect of E4 peptide on uPA (uPA): Increase
ID1 levels (ID1): increases; also recorded: inducing expression
levels of lysyl oxidase (LOX) (lysyl oxidase (LOX) [3]): reduces
Effect of E4 peptide on MMP-3 (MMP-3): increased levels and activity; also recorded: Increase
MMP-2 activity (MMP-2): induction and activation
MMP-2 activity (MMP-2; listed as E-4): increased MMP-2 activity
total and active MMP-2 levels (MMP-2; cells treated with TGF-β and E-4): increased
Effect of E4 peptide on PAI-1 (PAI-1): reduces; also recorded: Decrease
TGF-β-induced ECM production [4]: reduced
inhibition of tubular structure formation (anti-angiogenic activity) (HUVECs): modest and low and minimal anti-angiogenic activity
TGF-β-induced LOX production (lysyl oxidase (LOX) [5]): significantly reduced; also recorded: blocking
skin thickness [6]: E4 significantly decreased skin
Effect of E4 peptide on IGFBP-3 (IGFBP-3): reduces; also recorded: Decrease

— patent publication US11912755B2, “Endostatin fragments and variants for use in treating fibrosis” (iBio, Inc., priority 2015, dated 2024)
